Reference: patent US20090143279A1 (priority 2007, published 2009)
Counter-ions that a name gives are not always drawn. Like-named read-outs stand apart in the source and are kept apart here. Where a SMILES comes first, the peptide text is derived from it. The star is where a group is joined. Tfa = O=C(C(F)(F)F)*

How the values were obtained:
[1] = test system: C2C12 myotubes
[2] = test system: OXPHOS gene expression; format: cell-based, mouse
[3] = test system: cellular dehydrogenase activity
[4] = test system: nuOXPHOS transcripts; format: cell-based, mouse
[5] = test system: cytochrome c; format: cell-based, mouse
Chain of cytochrome c (P62897 whole entry): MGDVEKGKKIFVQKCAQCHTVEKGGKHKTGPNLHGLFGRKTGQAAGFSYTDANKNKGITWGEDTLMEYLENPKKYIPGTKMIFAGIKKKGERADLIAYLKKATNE

[6] = test system: reactive oxygen species; format: cell-based, mouse
[7] = test system: mtOXPHOS transcripts; format: cell-based, mouse
[8] = test system: mitochondrial membrane potential; format: cell-based, mouse
[9] = composite Z-score vs DMSO, Conc 20 μM
[10] = composite Z-score vs mock-treated (DMSO) wells, Conc 20 μM
[11] = 20 μM, composite Z-score vs DMSO
[12] = Table 5, C2C12 myotubes, 48 h, composite Z-score
[13] = normalized composite Z-score vs mock-treated (DMSO) wells, Conc 20 μM
[14] = Conc 20 μM, normalized score vs mock-treated (DMSO) wells
[15] = composite Z-score vs mock-treated (DMSO) wells, concentration of each compound in μM

Compound: C=C[C@H]1C[N@@]2CC[C@H]1C[C@@H]2[C@@H](O)c1ccnc2ccc(OC)cc12 [quinidine]
- Viability [1, 9]: 0.916
- GE-HTS [2, 9]: 0.849
- MTT [3, 9]: −0.233
- nucOX [4, 9]: 0.956
- cyt c [5, 9]: 1.286
- ROS [6, 9]: 1.326
- mitoOX [7, 9]: 0.501
- ΔΨm [8, 9]: 1.187

Compound: CCN1CCN(C(=O)N[C@@H](C(=O)N[C@@H]2C(=O)N3C(C(=O)O)=C(CSc4nnnn4C)CS[C@H]23)c2ccc(O)cc2)C(=O)C1=O [cefoperazone]
- Viability [1, 10]: 0.097
- GE-HTS [2, 10]: 0.130
- MTT [3, 10]: −0.793
- nucOX [4, 10]: 0.013
- cyt c [5, 10]: 1.001
- ROS [6, 10]: −0.295
- mitoOX [7, 10]: 0.367
- ΔΨm [8, 10]: −0.908

Compound: CN[C@@H](Cc1c[nH]c2ccccc12)C(=O)O [abrine]
- Viability (composite Z-score) [1]: 0.206
- GE-HTS (composite Z-score) [2]: 0.459
- MTT (composite Z-score) [3]: −1.203
- nucOX (composite Z-score) [4]: 0.430
- cyt c (composite Z-score) [5]: −0.094
- ROS (composite Z-score) [6]: 1.698
- mitoOX (composite Z-score) [7]: 0.383
- ΔΨm (composite Z-score) [8]: −0.332

Compound: Clc1ccc(C(c2ccccc2Cl)C(Cl)Cl)cc1 (centres unmarked) [mitotane]
- Viability [1, 11]: −1.631
- GE-HTS [2, 11]: −0.030
- MTT [3, 11]: −1.708
- nucOX [4, 11]: 0.072
- cyt c [5, 11]: −0.216
- ROS [6, 11]: 0.460
- mitoOX [7, 11]: −0.244
- ΔΨm [8, 11]: −0.542

Compound: COc1cc([C@@H]2c3cc4c(cc3[C@H](O)[C@H]3COC(=O)[C@@H]23)OCO4)cc(OC)c1OC [picropodophyllotoxin, reference compound]
- Viability [1, 9]: −0.107
- GEHTS_Zscore [2, 12]: 2.259
- GE-HTS [2, 9]: 1.512
- MTT [3, 9]: −2.402
- nucOX [4, 9]: 1.581
- cyt c [5, 9]: −1.445
- ROS Zscore [6, 12]: −1.202
- ROS [6, 9]: −1.202
- mitoOX [7, 9]: 1.129
- ΔΨm [8, 9]: −0.349

Compound: COc1c(-c2coc3cc4c(cc3c2=O)CC(O)C(C)(C)O4)ccc2c1C=CC(C)(C)O2 (centres unmarked) [mundulone, reference compound]
- Viability [1, 13]: −1.113
- GE-HTS [2, 13]: −1.719
- MTT [3, 13]: −2.487
- nucOX [4, 13]: −1.888
- cyt c [5, 13]: −0.843
- ROS [6, 13]: −0.141
- mitoOX [7, 13]: −1.091
- ΔΨm [8, 13]: 3.037

Compound: COC1=C(OC)C(=O)C(C/C=C(\C)CC/C=C(\C)CC/C=C(\C)CC/C=C(\C)CC/C=C(\C)CC/C=C(\C)CC/C=C(\C)CC/C=C(\C)CC/C=C(\C)CCC=C(C)C)=C(C)C1=O [coenzyme Q10]
- Viability (composite Z-score) [1, 14]: 0.166
- GE-HTS (composite Z-score) [2, 14]: 0.366
- MTT (composite Z-score) [3, 14]: −1.758
- nucOX (composite Z-score) [4, 14]: 0.391
- cyt c (composite Z-score) [5, 14]: 0.636
- ROS (composite Z-score) [6, 14]: 1.179
- mitoOX (composite Z-score) [7, 14]: 0.226
- ΔΨm (composite Z-score) [8, 14]: 0.920

Compound: CCOc1nc2cccc(C(=O)OC(C)OC(=O)OC3CCCCC3)c2n1Cc1ccc(-c2ccccc2-c2nn[nH]n2)cc1 (centres unmarked) [candesartan cilextil]
- Viability [1, 9]: 1.842
- GE-HTS [2, 9]: −0.432
- MTT [3, 9]: −1.116
- nucOX [4, 9]: −0.259
- cyt c [5, 9]: 1.328
- ROS [6, 9]: 1.855
- mitoOX [7, 9]: −0.658
- ΔΨm [8, 9]: −0.743

Compound: CCOc1cc(CC(=O)c2ccc(O)c(O)c2O)ccc1O
- Viability (composite Z-score) [1, 14]: −1.198
- GE-HTS (composite Z-score) [2, 14]: 1.215
- MTT (composite Z-score) [3, 14]: −1.279
- nucOX (composite Z-score) [4, 14]: 1.496
- cyt c (composite Z-score) [5, 14]: 0.255
- ROS (composite Z-score) [6, 14]: 0.189
- mitoOX (composite Z-score) [7, 14]: 0.371
- ΔΨm (composite Z-score) [8, 14]: −1.362

Compound: CCCN(CCC)C(=O)C(CCC(=O)O)NC(=O)c1ccccc1 (centres unmarked) [proglumide]
- Viability [1, 11]: −0.750
- GE-HTS [2, 11]: −0.541
- MTT [3, 11]: −1.254
- nucOX [4, 11]: −0.394
- cyt c [5]: −0.001
- cyt c [5, 11]: −0.033
- ROS [6, 11]: 2.083
- mitoOX [7, 11]: −0.730
- ΔΨm [8, 11]: −0.910

Compound: CC(C)(C#N)O[C@@H]1O[C@H](CO)[C@@H](O)[C@H](O)[C@H]1O [linamarin]
- Viability (composite Z-score) [1, 14]: 0.796
- GE-HTS (composite Z-score) [2, 14]: −1.024
- MTT (composite Z-score) [3, 14]: −1.611
- nucOX (composite Z-score) [4, 14]: −0.847
- cyt c (composite Z-score) [5, 14]: −0.052
- ROS (composite Z-score) [6, 14]: −0.189
- mitoOX (composite Z-score) [7, 14]: −1.232
- ΔΨm (composite Z-score) [8, 14]: −0.333

Compound: CC1(C)C2CC(=O)[C@]3(C)C(CC[C@@]4(C)[C@H](c5ccoc5)OC(=O)C5OC543)[C@@]2(C)[C@@H](O)C[C@H]1O (some centres unmarked) [1,3-dideacetyl-7-deacetoxy-7-oxokhivorin]
- Viability [1, 13]: 0.190
- GE-HTS [2, 13]: −0.665
- MTT [3, 13]: −1.399
- nucOX [4, 13]: −0.716
- cyt c [5, 13]: 0.226
- ROS [6, 13]: 1.267
- mitoOX [7, 13]: −0.497
- ΔΨm [8, 13]: 1.329

Compound: C[C@@H]([C@H]1OC(C)(C)[C@@H](O)[C@H]1O)[C@@H]1CC[C@]2(C)C3=CC[C@H]4C(C)(C)C(=O)CC[C@]4(C)[C@H]3CC[C@@]12C [odoratone]
- Viability [1, 10]: 0.542
- GE-HTS [2, 10]: −0.994
- MTT [3, 10]: −1.060
- nucOX [4, 10]: −0.988
- cyt c [5, 10]: 0.707
- ROS [6, 10]: 0.083
- mitoOX [7, 10]: −0.873
- ΔΨm [8, 10]: 0.367

Compound: CN(C(=O)CN(CCO)CC(=O)N(C)C(C)(C)Cc1ccccc1)C(C)(C)Cc1ccccc1 [oxethazaine]
- Viability [1]: −0.497
- Viability [1, 11]: −0.294
- GE-HTS [2]: 0.473
- GE-HTS [2, 11]: −0.739
- MTT [3]: −1.374
- MTT [3, 11]: −1.451
- nucOX [4]: 0.335
- nucOX [4, 11]: −0.812
- cyt c [5]: −0.550
- cyt c [5, 11]: −0.278
- ROS [6]: 1.092
- ROS [6, 11]: −0.055
- mitoOX [7]: 0.609
- mitoOX [7, 11]: −0.486
- ΔΨm [8]: −0.742
- ΔΨm [8, 11]: 0.173

Compound: ginkgolic acid
- Viability [1, 9]: −0.686
- GE-HTS [2, 9]: −0.062
- MTT [3, 9]: −0.461
- nucOX [4, 9]: −0.315
- cyt c [5, 9]: 0.587
- ROS [6, 9]: −0.116
- mitoOX [7, 9]: 0.505
- ΔΨm [8, 9]: −0.905

Compound: CC(C)[C@H](NC(=O)[C@H](Cc1ccc(O)cc1)NC(=O)[C@@H](NC(=O)C(F)(F)F)C(C)C)C(=O)O [TFA-Val-Tyr-Val-OH] (Tfa-Val-Tyr-Val-OH)
- Viability [1, 15]: −0.143
- GE-HTS [2, 15]: 0.294
- MTT [3, 15]: −1.019
- nucOX [4, 15]: 0.415
- cyt c [5, 15]: −0.785
- ROS [6, 15]: 0.471
- mitoOX [7, 15]: −0.008
- ΔΨm [8, 15]: −0.510

Compound: khayanthone
- Viability [1, 10]: 1.156
- GE-HTS [2, 10]: 1.491
- MTT [3, 10]: −0.382
- nucOX [4, 10]: 1.510
- cyt c [5, 10]: −0.669
- ROS [6, 10]: 0.015
- mitoOX [7, 10]: 1.095
- ΔΨm [8, 10]: 0.962

Compound: C[C@@H]1O[C@@H](O[C@H]2[C@H](Oc3cc(O)c4c(=O)cc(-c5ccc(O)cc5)oc4c3)O[C@H](CO)[C@@H](O)[C@@H]2O)[C@H](O)[C@H](O)[C@H]1O [rhoifolin]
- Viability [1, 13]: 0.089
- GE-HTS [2, 13]: −0.838
- MTT [3, 13]: −0.683
- nucOX [4, 13]: −0.774
- cyt c [5, 13]: 0.515
- ROS [6, 13]: 0.471
- mitoOX [7, 13]: −0.768
- ΔΨm [8, 13]: −0.213
